# Source: ChEMBL document CHEMBL3045083, “Insect growth regulators as potential insecticides to control olive fruit fly (Bactrocera oleae Rossi): insect toxicity bioassays and molecular docking approach” (2013)
# Legend:
# Format in all cases: functional
# Bactrocera oleae [1] = test: Insecticidal activity against Bactrocera oleae assessed as insect mortality after 24 hr
# Bactrocera oleae [2] = test: Insecticidal activity against Bactrocera oleae assessed as insect mortality at 96 mg Ai/L applied through residual contact on glass surfaces measured after 7 days (reference value: 4.0 +/- 4.0%); details: 168 h
# Bactrocera oleae [3] = test: Insecticidal activity against Bactrocera oleae assessed as insect mortality at 96 mg Ai/L applied through residual contact on glass surfaces measured after 24 hr (reference value: 2.0 +/- 2.0%)
# Bactrocera oleae [4] = test: Insecticidal activity against Bactrocera oleae assessed as insect survival lifespan at 96 mg Ai/L applied through oral ingestion (reference value: 79.7 +/- 12.2 days)
# Bactrocera oleae [5] = test: Insecticidal activity against Bactrocera oleae assessed as insect mortality at 96 mg Ai/L applied through oral ingestion measured after 15 days (reference value: 2.5 +/- 2.5%); details: 360 h
# Bactrocera oleae [6] = test: Insecticidal activity against Bactrocera oleae assessed as insect mortality at 96 mg Ai/L applied through oral ingestion measured after 7 days (reference value: 2.5 +/- 2.5%); details: 168 h
# Bactrocera oleae [7] = test: Insecticidal activity against Bactrocera oleae assessed as insect mortality at 96 mg Ai/L applied through oral ingestion measured after 24 hr (reference value: 0%)
# Bactrocera oleae [8] = test: Insecticidal activity against Bactrocera oleae assessed as insect mortality at 96 mg Ai/L applied through residual contact on glass surfaces measured after 15 days (reference value: 45.8 +/- 16.3%); details: 360 h
# Anastrepha suspensa [9] = test: Insecticidal activity against Anastrepha suspensa assessed as reduction in egg viability administered through diet ingestion measured after 8 to 10 days
# Anastrepha suspensa [10] = test: Insecticidal activity against Anastrepha suspensa assessed as insect mortality administered through diet ingestion measured after 12 to 14 days
# Bactrocera oleae [11] = test: Insecticidal activity against Bactrocera oleae assessed as insect mortality at 180 mg Ai/L applied through residual contact on glass surfaces measured after 24 hr (reference value: 2.0 +/- 2.0%)
# Bactrocera oleae [12] = test: Insecticidal activity against Bactrocera oleae assessed as insect survival lifespan at 180 mg Ai/L applied through oral ingestion (reference value: 79.7 +/- 12.2 days)
# Bactrocera oleae [13] = test: Insecticidal activity against Bactrocera oleae assessed as insect mortality at 180 mg Ai/L applied through oral ingestion measured after 15 days (reference value: 2.5 +/- 2.5%); details: 360 h
# Bactrocera oleae [14] = test: Insecticidal activity against Bactrocera oleae assessed as insect mortality at 180 mg Ai/L applied through oral ingestion measured after 7 days (reference value: 2.5 +/- 2.5%); details: 168 h
# Bactrocera oleae [15] = test: Insecticidal activity against Bactrocera oleae assessed as insect mortality at 180 mg Ai/L applied through oral ingestion measured after 24 hr (reference value: 0%)
# Bactrocera oleae [16] = test: Insecticidal activity against Bactrocera oleae assessed as insect mortality at 180 mg Ai/L applied through residual contact on glass surfaces measured after 15 days (reference value: 45.8 +/- 16.3%); details: 360 h
# Bactrocera oleae [17] = test: Insecticidal activity against Bactrocera oleae assessed as insect mortality at 180 mg Ai/L applied through residual contact on glass surfaces measured after 7 days (reference value: 4.0 +/- 4.0%); details: 168 h
SMILES,mortality (Bactrocera oleae [1]) [%],mortality at 96 µg/mL (Bactrocera oleae [2]) [%],mortality at 96 µg/mL (Bactrocera oleae [3]) [%],Survival (Bactrocera oleae [4]) [days],mortality at 96 µg/mL (Bactrocera oleae [5]) [%],mortality at 96 µg/mL (Bactrocera oleae [6]) [%],mortality at 96 µg/mL (Bactrocera oleae [7]) [%],mortality at 96 µg/mL (Bactrocera oleae [8]) [%],Activity (Anastrepha suspensa [9]) [%],mortality (Anastrepha suspensa [10]) [%],mortality at 180 µg/mL (Bactrocera oleae [11]) [%],Survival (Bactrocera oleae [12]) [days],mortality at 180 µg/mL (Bactrocera oleae [13]) [%],mortality at 180 µg/mL (Bactrocera oleae [14]) [%],mortality at 180 µg/mL (Bactrocera oleae [15]) [%],mortality at 180 µg/mL (Bactrocera oleae [16]) [%],mortality at 180 µg/mL (Bactrocera oleae [17]) [%]
CC[C@H]1CCC[C@H](O[C@H]2CC[C@H](N(C)C)[C@@H](C)O2)[C@@H](C)C(=O)C2=C[C@@H]3[C@@H](C=C(C)[C@@H]4C[C@@H](O[C@@H]5O[C@@H](C)[C@H](OC)[C@@H](OC)[C@H]5OC)C[C@@H]34)[C@@H]2CC(=O)O1.CC[C@H]1CCC[C@H](O[C@H]2CC[C@H](N(C)C)[C@@H](C)O2)[C@@H](C)C(=O)C2=C[C@@H]3[C@@H](C=C[C@@H]4C[C@@H](O[C@@H]5O[C@@H](C)[C@H](OC)[C@@H](OC)[C@H]5OC)C[C@@H]34)[C@@H]2CC(=O)O1,62,,,,,,,,,,,,,,,,
COc1cccc(C(=O)NN(C(=O)c2cc(C)cc(C)c2)C(C)(C)C)c1C [METHOXYFENOZIDE],,0,0,8.6,2.5,2.5,2.5,49.1,,,,,,,,,
CC(C)(C)N(NC(=O)c1ccccc1)C(=O)c1ccccc1 [RH-5849],,,,,,,,,60,>75,0,8.7,98.2,31.8,0,100,86
CCc1ccc(C(=O)NN(C(=O)c2cc(C)cc(C)c2)C(C)(C)C)cc1 [TEBUFENOZIDE],,,,,,,,,,,0,66.9,0,0,0,58,18
